Source: patent US5413991A (Ajinomoto Co., Inc., priority 1991, dated 1995)

Columns and labels:
[1] = system: chitinase from Candida albicans; experiment: Assay for chitinase inhibitory activity, chitinase from Candida albicans (4MBTC fluorescence); assay type: biochemical, Candida albicans ATCC 10231; conditions: for Chitinase Inhibitory Activity IC50, C. albicans: bis-Tris buffer pH 6.5, 37° C., 30 minutes, substrate 4MBTC; for Inhibitory activity against chitinase derived from Candida albicans, in words: comparison in words
Method: The chitinase from Candida albicans (C. albicans) was prepared by the following method. Firstly, a Sabouraud medium (pH 5.6) composed of 4 g of glucose, 1 g of polypeptone and 100 ml of water was prepared and placed in an Erlenmeyer flask of 500 ml volume. After sterilization at 120° C. for 20 minutes, one platinum loop of slant culture cells of C. albicans ATCC 10231 was inoculated into the medium, and then shake cultured at 37° C. for 2 days to obtain a primary seed mother liquor.
In a second procedure, 1 liter of Sabouraud medium having the same composition as above was prepared. Separately, 100 ml of the medium was added to each of ten 500 ml Erlenmeyer flasks, then the flasks and their contents were sterilized at 120° C. for 20 minutes. Thereafter, 2 ml of the primary seed mother liquor described above was added to each flask. The flask was shaken at 37° C. for 2 days to obtain a secondary seed mother liquor.
In a third procedure, 50 liters of Sabouraud medium having the same composition as described above was prepared and added to a culture tank of 100 liter volume. The tank and its contents were sterilized at 120° C. for 30 minutes. In the tank, 1 liter of the secondary seed mother liquor described above was added. Shake culturing was then conducted at 37° C. for 15 hours. At this stage, the stirring velocity was 140 rpm and the aerial rate was 10 l/min. The resulting culture broth was centrifuged by a sharpless centrifuging machine to recover the cells. The wet weight of the thus obtained cells was 250 g.
The cells were suspended in 800 ml of a buffer for cell homogenization (50 mM bis-Tris, 0.25M saccharose, 1 mM disodium ethylenediaminetetraacetate, pH 6.5). The suspension was twice passed through a Dyno-mill disintegrator (beads: MK-2GX, 0.25-0.5 mm) to disrupt the cells, and the supernatant was recovered. The supernatant was centrifuged at 9000 g for 30 minutes, then further super-centrifuged at 152,000 g for an hour. The supernatant thereof was recovered, and was concentrated to about one-fifth of the volume by ultrafiltration (Toyo Ultrafilter UP-20), having an excluding limiting molecular weight of 20,000. The concentrate was used as the crude chitinase solution from Candida albicans in the assay described in procedure (ii) below.
(§1) In a 20 ml vial bottle, 50 μl of the chitinase solution from Candida albicans prepared as described above,s 50 μl of 100 μg/ml aqueous 4-methylumbelliferyl β-D-N,N',N"-triacetyl-chitotrioside (hereinafterabbreviated as 4MBTC, SIGMA Co.), 75 μl of 50 mM bis-Tris buffer (pH 6.5) and 25 μl of 0.1N acetic acid were added and mixed. The reaction was carried out at 37° C. for 30 minutes. As a blank, the reaction was carried out in an identical manner, substituting 50 mM bis-Tris buffer (pH 6.5) for the enzyme solution. After the reaction, sufficient 0.5M glycine-sodium hydroxide buffer (pH 10.4) was added to make the total volume 5 ml. Then, the fluorescent intensity was determined with a fluorophotometer (manufactured by Hitachi Ltd., MPF-4). The excited wavelength was 350 nm, and the fluorescent wavelength was 400 nm. Chitinase activity was determined using the difference in the fluorescent intensity between the read-out data from the sample containing the enzyme and the blank read-out data.
(§2) In determining the inhibitory activity of AJI9463A, AJI9463B, AJI9463C, and the partially hydrolyzed disaccharides thereof, each compound was dissolved in 0.1N acetic acid, and 25 μl of the compound solution was substituted for the 25 μl of 0.1N acetic acid in the reaction system described above. Further, in determining the inhibitory activity against the chitinases of baker's yeast and Trichoderma sp., the assay was performed by changing the buffer in the reaction system described above from 50 mM bis-Tris buffer (pH 6.5) to 0.1M citrate buffer (pH 3.0) and MclLvanine buffer (pH 5.2), respectively.

[2] = target: chitinase from Trichoderma sp. (Chitinase T-1); experiment: Assay for chitinase inhibitory activity, chitinase from Trichoderma sp.; assay type: biochemical; conditions: McIlvaine buffer pH 5.2, substrate 4MBTC
Method: The chitinase from Trichoderma sp. was provided for use in the assay described in procedure (ii) below by diluting commercially available Chitinase T-1 (manufactured by Asahi Industry Co., Ltd.) with MclIvanine buffer (obtained by adding 0.2M aqueous disodium hydrogen phosphate to 0.1M aqueous citric acid and adjusting the pH to 5.2) to a concentration of 50 μg/ml.
as §1, §2

[3] = target: T1, chitinase from baker's yeast (S cerevisiae) (Saccharomyces cerevisiae, UniProt P29029); experiment: Assay for chitinase inhibitory activity, chitinase from baker's yeast; assay type: biochemical; conditions: 0.1M citrate buffer pH 3.0, substrate 4MBTC
T1 construct: was shaken at 30° C. for 2 hours at 120 spm to extract the enzyme; host or cells: commercial baker's yeast, digitonin extract
T1 sequence (P29029 21-562): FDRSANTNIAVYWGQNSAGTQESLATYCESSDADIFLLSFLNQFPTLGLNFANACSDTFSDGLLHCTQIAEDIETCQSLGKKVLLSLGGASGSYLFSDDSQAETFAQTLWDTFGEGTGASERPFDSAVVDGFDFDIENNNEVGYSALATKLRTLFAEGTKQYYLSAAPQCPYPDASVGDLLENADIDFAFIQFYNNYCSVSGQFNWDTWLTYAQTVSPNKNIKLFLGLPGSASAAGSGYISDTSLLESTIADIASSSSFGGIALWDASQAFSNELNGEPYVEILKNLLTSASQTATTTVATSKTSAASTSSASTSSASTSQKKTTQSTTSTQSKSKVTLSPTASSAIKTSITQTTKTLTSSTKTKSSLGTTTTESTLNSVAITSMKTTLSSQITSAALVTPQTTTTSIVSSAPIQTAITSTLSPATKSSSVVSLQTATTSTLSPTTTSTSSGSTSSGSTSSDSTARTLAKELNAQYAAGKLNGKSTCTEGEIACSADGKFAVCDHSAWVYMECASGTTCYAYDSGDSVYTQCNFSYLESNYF
Method: The chitinase from baker's yeast (S cerevisiae) was prepared by the following method. Firstly, 400 g of baker's yeast (manufactured by Kanegafuchi Chemical Industry Co., Ltd.) was suspended in buffer for enzyme extraction (0.1% digitonin: manufactured by Wako Pure Chemical Industry Co., Ltd.), 0.1% β-mercaptoethanol and 2 liters of 25 mM MES (manufactured by Nakarai Chemical Co., Ltd.), and was shaken at 30° C. for 2 hours at 120 spm to extract the enzyme. The extract was centrifuged at 12,000 g for 10 minutes and the supernatant was recovered. The supernatant was concentrated to about one-fifth of the volume by ultrafiltration (UP-20). After 800 ml of sodium citrate buffer (obtained by adding 0.15M aqueous sodium citrate to 0.15M aqueous citric acid, and adjusting the pH to 3.0) was added to the concentrate, the precipitates were removed by centrifugation (0° C., 12,000 g, 10 minutes). The supernatant was again concentrated by ultrafiltration (UP-20) to about 80 ml. The resulting concentrate was used as the chitinase from baker's yeast in the assay described in procedure (ii) below.
as §1, §2

[4] = system: mouse ascites breast cancer cells FM3A; experiment: Cytotoxicity, mouse ascites breast cancer cells FM3A; assay type: cell-based; conditions: 1 mg/ml, 37° C., 4 days, microscopic observation
Method: (§3) Six separate samples of mouse ascites breast cancer cells FM3A, inoculated in Dulbeccol's modified MEM medium supplemented with 10% calf fetal serum (1×10^5 counts/ml) were prepared, and AJI9463A, AJI9463B, AJI9463C and each of the partially hydrolyzed disaccharides thereof were respectively added thereto, resulting in a concentration of 1 mg/ml. Stationary culture was conducted at 37° C. for 4 days. The cultured mouse ascites breast cancer cells FM3A were observed microscopically.

[5] = system: Candida albicans (ATCC 10231); experiment: Effects on growth of Candida albicans; assay type: cell-based; conditions: 50 μg/ml, Sabouraud dextrose medium, 37° C., 6 and 9 hours after inoculation, microscopic observation
Method: Samples of Candida albicans (ATCC 10231) were precultured in Sabouraud dextrose medium. Each of seven large test tubes containing 5 ml of Sabouraud dextrose medium were charged, respectively, with 50 μg/ml of AJI9463A, AJI9463B, AJI9463C, and the partially hydrolyzed disaccharides thereof and medium containing no active inhibitory component. The preculture was then inoculated into the media in the test tubes. The test tubes were capped with a cotton stopper, and incubated at 37° C. at 120 spm. The change in the subsequent culture with respect to time was observed. Observations were made microscopically, sampling the medium at the time when the culture started, and 6 and 9 hours thereafter.

[6] = system: human leukemia cells K562; experiment: Cytotoxicity, human leukemia cells K562; assay type: cell-based; conditions: 1 mg/ml, 37° C., 4 days, microscopic observation
Method: as §3, with “human leukemia” for “mouse ascites breast cancer”, “K562,” for “FM3A,”, “RPMI 1640” for “Dulbeccol's modified MEM”, “human leukemia cell K562 culture was” for “cultured mouse ascites breast cancer cells FM3A were”

fungi-derived chitinase = conditions: background statement; cited from earlier work
[7] = system: silkworm-derived chitinase; conditions: background statement; cited from earlier work
[8] = system: endo-type chitinase of insects; conditions: background statement; cited from earlier work

Row | Chitinase Inhibitory Activity IC50, C. albicans [1] | Chitinase Inhibitory Activity IC50, Trichoderma sp. [2] | IC50 [3] | Compound | Growth inhibition of mouse ascites breast cancer cells FM3A (cytotoxicity) [4] | Inhibitory activity against chitinase derived from Candida albicans, in words [1] | Fungal growth of Candida albicans [5] | Growth inhibition of human leukemia cells K562 (cytotoxicity) [6] | Inhibitory activity against fungi-derived chitinase (fungi-derived chitinase) | Inhibition of silkworm-derived chitinase [7] | Inhibition of endo-type chitinase of insects [8]
1 | 1.3 µg/mL | > 50.0 µg/mL | > 477 µM | CC(=O)N[C@H]1[C@H](OC2C(O)C3N=C(N(C)C)OC3C2CO)O[C@H](CO)[C@@H](O)[C@@H]1O (some centres unmarked) | – | – | – | – | – | – | –
2 | 3.4 µg/mL | 0.8 µg/mL | 49.2 µM | COC[C@H]1O[C@@H](O[C@H]2[C@H](O)[C@@H](NC(C)=O)[C@H](OC3C(O)C4N=C(N(C)C)OC4C3CO)O[C@@H]2CO)[C@H](NC(C)=O)[C@H](O)[C@@H]1O (some centres unmarked) [AJI9463C] | No growth inhibition was noted at all | superior to that of allosamidin and methylallosamidin | somewhat inhibited | No growth inhibition was noted at all | – | – | –
3 | 0.8 µg/mL | 1.6 µg/mL | 0.803 µM | CNC1=NC2C(O)C(O[C@@H]3O[C@H](CO)[C@@H](O[C@@H]4O[C@H](COC)[C@@H](O)[C@@H](O)[C@H]4NC(C)=O)[C@H](O)[C@H]3NC(C)=O)C(CO)C2O1 (some centres unmarked) [AJI9463B] | No growth inhibition was noted at all | superior to that of allosamidin and methylallosamidin | somewhat inhibited | No growth inhibition was noted at all | – | – | –
4 | 0.9 µg/mL | > 50.0 µg/mL | > 493 µM | CNC1=NC2C(O)C(O[C@@H]3O[C@H](CO)[C@@H](O)[C@@H](O)[C@H]3NC(C)=O)C(CO)C2O1 (some centres unmarked) | – | – | – | – | – | – | –
5 | 1.0 µg/mL | > 50.0 µg/mL | > 493 µM | CNC1=NC2C(O)C(O[C@@H]3O[C@H](CO)[C@@H](O)[C@H](O)[C@H]3NC(C)=O)C(CO)C2O1 (some centres unmarked) | – | – | – | – | – | – | –
6 | 0.6 µg/mL | 1.3 µg/mL | 0.642 µM | CNC1=NC2C(O)C(O[C@@H]3O[C@H](CO)[C@@H](O[C@@H]4O[C@H](COC)[C@@H](O)[C@@H](O)[C@H]4NC(C)=O)[C@@H](O)[C@H]3NC(C)=O)C(CO)C2O1 (some centres unmarked) [AJI9463A] | No growth inhibition was noted at all | most potent inhibitory activity of any known compound | somewhat inhibited | No growth inhibition was noted at all | – | – | –

Row | Compound | Chitinase Inhibitory Activity IC50, C. albicans [1] | Chitinase Inhibitory Activity IC50, Trichoderma sp. [2] | IC50 [3] | Growth inhibition of mouse ascites breast cancer cells FM3A (cytotoxicity) [4] | Inhibitory activity against chitinase derived from Candida albicans, in words [1] | Fungal growth of Candida albicans [5] | Growth inhibition of human leukemia cells K562 (cytotoxicity) [6] | Inhibitory activity against fungi-derived chitinase (fungi-derived chitinase) | Inhibition of silkworm-derived chitinase [7] | Inhibition of endo-type chitinase of insects [8]
7 | COC[C@H]1O[C@@H](O[C@H]2[C@@H](O)[C@@H](NC(C)=O)[C@H](OC3C(O)C4N=C(N(C)C)OC4C3CO)O[C@@H]2CO)[C@H](NC(C)=O)[C@H](O)[C@@H]1O (some centres unmarked) [Methylallosamidin, methylallosamidin, reference compound] | 8.8 µg/mL | 1.2 µg/mL | 58.4 µM | – | – | – | – | weak inhibitory activity | inhibitors | strongly inhibit
8 | CC(=O)N[C@H]1[C@H](O[C@H]2[C@@H](O)[C@@H](NC(C)=O)[C@H](O[C@H]3[C@H](O)[C@H]4N=C(N(C)C)O[C@H]4[C@@H]3CO)O[C@@H]2CO)O[C@H](CO)[C@@H](O)[C@H]1O [Allosamidin, allosamidin] | 6.2 µg/mL | 0.8 µg/mL | – | – | – | – | – | weak inhibitory activity | inhibitors | strongly inhibit
